Test results taken from US20250263370A1 (Tay Therapeutics Limited, priority 2022, published 2025).
Like-named read-outs stand apart in the source and are kept apart here.

How the values were obtained:
[1] = Intrinsic clearance in liver microsomes, rat; assay type: in vitro ADME; conditions: rat, liver microsomes, pH 7.4, rat liver microsomes, read-out: Half-Life (T1/2) (min), Rat
Procedure: From stock solution of compound on 10 mM DMSO, a working solution of 0.1 mM is prepared by diluting the compound in DMSO. 6.25 μL of a 20 mg/mL solution of microsomes in PBS pH 7.4 buffer is added to 216.25 μL PBS pH 7.4 buffer (final microsome concentration—0.5 mg/mL). 25 μL of 10 mM solution of NADPH in PBS pH 7.4 buffer is added to the incubations (final NADPH concentration—1 mM). The mixture is pre-warmed to 37° C. for 10 minutes. 2.5 μL of test compound working solution is added (final compound concentration—1 μM with 1% DMSO). Aliquots of 30 μL are taken from the reaction solution at 0.5, 5, 15, 30 and 60 minutes. The reaction was stopped by the addition of 5 volumes of cold acetonitrile with IS (100 nM alprazolam, 200 nM caffeine and 100 nM tolbutamide). Samples were centrifuged at 3, 220 g for 40 minutes. Aliquots of 100 μL of the supernatant are mixed with 100 μL of ultra-pure H2O and used for LC-MS/MS analysis. The percent compound remaining at each time point is calculated with respect to that of the 0.5 min sample. The data are analysed to calculate half-life. Control experiments are run without NADPH and blank samples are prepared using DMSO without the test compound.
A 50 mM stock solution (in DMSO) is prepared for the compound. From the stock solution, a working solution of 0.5 mM is prepared by diluting the compound in DMSO. This concentration of working solution is prepared considering a final concentration of 1 uM with 0.1% DMSO. The compound (1 μL of working solution) is spiked in PBS with pH 7.4 ([…]) at a concentration of 1 μM. Subsequently, 110 μL of 10 mM NADPH is added (as a co-factor). The sample is incubated at 37° C. for 15 min. Following this, pre-warmed liver microsomes (27.5 μL; final protein conc. 0.5 mg/mL) are added. The samples are then incubated at 37° C. Aliquots of samples are withdrawn at 0, 5, 15, 30, 45 and 60 min. The reaction is stopped by using chilled acetonitrile containing internal standard. The samples are centrifuged, and the supernatants analysed by LC-MS/MS. The percent compound remaining at each time point is calculated with respect to that of the 0 min sample. The data are then analysed to calculate half-life and intrinsic clearance (CLint). Control experiments are run without NADPH and blank samples are prepared using DMSO without the test compound.

[2] = Plasma stability assay, rat plasma; assay type: in vitro ADME; conditions: Method 2 (10 μM)
Procedure: From stock solution of compound in 10 mM DMSO, a working solution of 1 mM is prepared by diluting the compound in DMSO. To 398 μL of plasma pre-warmed at 37° C. for 15 minutes), 2 μL of working solution of compound is added, resulting in a final concentration of 5 μM (0.5% DMSO) for the compound. The sample is then incubated at 37° C. Aliquot is withdrawn at specified time-points (0, 15, 30, 60 and 120 mins). The reaction is stopped by addition of 450 μL cold acetonitrile containing internal standard (IS). […] Aliquots of the supernatant is analysed using LC-MS/MS. The percent remaining of the compound at each time point is calculated with respect to the control sample (0 min time-point).
A working solution of compound (500 μM) is prepared in DMSO (100%). To 735 μL of plasma, 15 μL of working solution of compound is added—resulting in a final concentration of 10 μM (2% DMSO) for the compound. The sample is then incubated at 37° C. Aliquot is withdrawn at time-points—0, 15, 30, 60, 90 and 120 mins. The reaction is stopped by using chilled acetonitrile containing internal standard (IS). The samples are centrifuged and the supernatants analyzed using LC-MS/MS. The percent remaining of the compound at each time point is calculated with respect to the control sample (0 min time-point).

BRD4 BD2 = BRD4 BD2 (Homo sapiens (Human), UniProt O60885); experiment: NanoBRET bromodomain assay, NanoLuc-BRD4-BD2 fusion in HEK293 cells; conditions: for IC50: BRD4 BD2 (IC50), NanoBRET, HEK293 cells, top concentration 10 μM; for Fold selectivity: IC50 for BRD4 BD1 divided by IC50 for BRD4 BD2, qualitative if an IC50 is at the upper limit;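 as to all read-outs here: tracer displacement BRET read in transfected cells after 2 h compound exposure at 37 °C, signal in milliBRET units corrected against no-tracer background wells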
Procedure: HEK293 cells were transfected using NanoLuc-BRD4-BD1 or NanoLuc-BRD4-BD2 fusion vectors and incubated at 37° C. in an atmosphere of 5% CO2 for 20-24 hours. The transfected cells were then dispensed into 96-well plates using 90 μl cell suspension per well containing 2×10^5 cells/mL in Opti-MEM and 1× final concentration of tracer. 90 μL per well of cell suspension without tracer was also dispensed into at least 3 wells as “No tracer control samples” for background correction. Serially diluted test compounds were prepared at 1000× concentration in DMSO and further diluted to 10× concentration in Opti-MEM. […] Plates were then incubated at 37° C. +5% 002 incubator for 2 hours. […] Donor emission (450 nm) and acceptor emission (610 nm) were measured using PHERAstar (BMG LabTech). For data analysis, the raw BRET ratio was generated and converted to milliBRET units with background correction using the formula: [(Acceptorsample/Donorsample−(Acceptorno tracer control/Donorno tracer control)]×1000. The mBU data was plotted as a function of compound concentration and IC50s for BRET assay were determined by nonlinear regression analysis of concentration response curves using the Collaborative Drug Discovery Vault software. The fold-selectivity was calculated by dividing the IC50 for BRD4 BD1 by the IC50 for BRD4 BD2.

[3] = Sprague-Dawley rat pharmacokinetics, IV and PO cassette dosing; assay type: in vivo; conditions: for PO F: PO 5 mg/kg; for PO F / IV T1/2: Method 1
Procedure: Compounds were formulated in 5% DMSO, 40% PEG-400, 55% Milli-Q water at a concentration of 0.2 mg/mL for IV and at 0.5 mg/mL for PO. Two male Sprague-Dawley rats per arm were dosed with up to 5 compounds in cassette mode, which each compound being dosed at 1 mg/kg IV and 5 mg/kg PO. Blood was sampled at various timepoints and plasma isolated. 50 μL of plasma with 5 μL of blank Sprague-Dawley rat plasma were added to 200 μL of acetonitrile containing IS mixture. The samples were vortexed for 30 s. After centrifugation at 4 degrees Celsius, 3900 rpm for 15 min, the supernatant was diluted 3 times with water. 20 μL of diluted supernatant was injected into the LC/MS/MS system for quantitative analysis and concentration of analyte determined by comparison with matrix matched standard curve. WinNonlin (Phoenix™, version 8.3) or other similar software may be used for pharmacokinetic calculations.

BRD4 BD1 = BRD4 BD1 (Homo sapiens (Human), UniProt O60885); experiment: NanoBRET bromodomain assay, NanoLuc-BRD4-BD1 fusion in HEK293 cells; assay type: cell-based; conditions: top concentration 10 μM

| half-life at 1 μM ([1]; Method 1) [min] | Plasma Stability (% remaining at 120 minutes), Rat [2] [%] | IC50 (BRD4 BD2) [µM] | Fold selectivity (BRD4 BD2) | PO F [3] [%] | IC50 (BRD4 BD1) [µM] | half-life at 1 μM ([1]; Method 2) [min] | IV T1/2 ([3]; IV 1 mg/kg) [min] | Structure (SMILES) | half-life ([3]; male, Sprague-Dawley, rat, plasma, iv, 1 mg/kg, IV 1 mg/kg, Method 1, read-out: IV T1/2 (converted)) [min] |
| --- | --- | --- | --- | --- | --- | --- | --- | --- | --- |
| – | 91 | 0.05 to 0.2 | XX (Fold >50 and ≤200) | – | ≥ 10 | > 60 | – | CCNC(=O)c1cc(OC(c2ccccc2)c2ccccc2)c(C(=O)NC)[nH]1 [Example 53, 3-(benzhydryloxy)-N^5-ethyl-N^2-methyl-1H-pyrrole-2,5-dicarboxamide] | – |
| 46 | 67 | < 0.05 | XXX (Fold >200) | 65 | ≥ 10 | – | 30 | CNC(=O)c1[nH]c(C(=O)NC2CCC2)cc1OC(C)c1ccc(Cl)cc1F (single isomer, unassigned) [Example 35, 3-(1-(4-chloro-2-fluorophenyl)ethoxy)-N^5-cyclobutyl-N^2-methyl-1H-pyrrole-2,5-dicarboxamide] | – |
| 47 | 47 | < 0.05 | XXX (Fold >200) | 47 | ≥ 10 | – | 24 | CNC(=O)c1[nH]c(C(=O)NC2CCC2)cc1OC(C)c1ccc(Cl)cc1 (single isomer, unassigned) [Example 27, 3-(1-(4-chlorophenyl)ethoxy)-N^5-cyclobutyl-N^2-methyl-1H-pyrrole-2,5-dicarboxamide] | – |
| – | 83 | < 0.05 | XXX (Fold >200) | – | ≥ 10 | 21 | – | CNC(=O)c1[nH]c(-c2ncc(C)[nH]2)cc1O[C@@H](C)c1ccc(Cl)cc1 [Example 69, (S)-3-(1-(4-chlorophenyl)ethoxy)-N-methyl-5-(5-methyl-1H-imidazol-2-yl)-1H-pyrrole-2-carboxamide] | – |
| > 60 | 81 | – | XX (Fold >50 and ≤200) | 15 | – | – | 36 | CNC(=O)c1[nH]c(C(=O)NC2COC2)cc1OC(C)c1ccc(Cl)cc1 (single isomer, unassigned) [Example 31, 3-(1-(4-chlorophenyl)ethoxy)-N^2-methyl-N^5-(oxetan-3-yl)-1H-pyrrole-2,5-dicarboxamide] | – |
| – | 93 | 0.05 to 0.2 | XX (Fold >50 and ≤200) | – | ≥ 10 | > 60 | – | CNC(=O)c1[nH]c(C(=O)NCC(F)(F)F)cc1O[C@@H](C)c1ccccc1 [Example 54, (S)—N^2-methyl-3-(1-phenylethoxy)-N^5-(2,2,2-trifluoroethyl)-1H-pyrrole-2,5-dicarboxamide] | – |
| – | 81 | 0.05 to 0.2 | XX (Fold >50 and ≤200) | – | ≥ 10 | > 60 | – | CNC(=O)c1[nH]c(C(=O)NC(C)C)cc1O[C@@H](C)c1ccc(Cl)cc1 [Example 61, (S)-3-(1-(4-chlorophenyl)ethoxy)-N^5-isopropyl-N^2-methyl-1H-pyrrole-2,5-dicarboxamide] | – |
| – | 88 | – | — (Fold ≥0 and ≤2) | – | – | > 60 | – | CCNC(=O)c1cc(OC(C)c2c(F)cccc2F)c(C(=O)NC)[nH]1 (single isomer, unassigned) [Example 55, 3-(1-(2,6-difluorophenyl)ethoxy)-N^5-ethyl-N^2-methyl-1H-pyrrole-2,5-dicarboxamide] | – |
| – | 75 | < 0.05 | XXX (Fold >200) | – | ≥ 10 | 23 | – | CNC(=O)c1[nH]c(-c2ncc(C)[nH]2)cc1O[C@@H](C)c1ccccc1F [Example 68, (S)-3-(1-(2-fluorophenyl)ethoxy)-N-methyl-5-(5-methyl-1H-imidazol-2-yl)-1H-pyrrole-2-carboxamide] | – |
| – | 90 | < 0.05 | XXX (Fold >200) | – | ≥ 10 | > 60 | – | CCNC(=O)c1cc(OC(C)c2ccc(Br)cc2)c(C(=O)NC)[nH]1 (single isomer, unassigned) [Example 49, 3-(1-(4-bromophenyl)ethoxy)-N^5-ethyl-N^2-methyl-1H-pyrrole-2,5-dicarboxamide] | – |
| – | 9 | > 10 | — (Fold ≥0 and ≤2) | – | – | 13 | – | CCNC(=O)c1[nH]c(C(=O)NC)c(O[C@@H](C)c2ccccc2F)c1Br [Example 72, (S)-3-bromo-N^2-ethyl-4-(1-(2-fluorophenyl)ethoxy)-N^5-methyl-1H-pyrrole-2,5-dicarboxamide] | – |
| – | 93 | < 0.05 | XXX (Fold >200) | – | ≥ 10 | > 60 | – | CCNC(=O)c1cc(OC(C)c2ccc(I)cc2)c(C(=O)NC)[nH]1 (single isomer, unassigned) [Example 51, N^5-ethyl-3-(1-(4-iodophenyl)ethoxy)-N^2-methyl-1H-pyrrole-2,5-dicarboxamide] | – |

| Structure (SMILES) | half-life at 1 μM ([1]; Method 1) [min] | Plasma Stability (% remaining at 120 minutes), Rat [2] [%] | IC50 (BRD4 BD2) [µM] | Fold selectivity (BRD4 BD2) | PO F [3] [%] | IC50 (BRD4 BD1) [µM] | half-life at 1 μM ([1]; Method 2) [min] | IV T1/2 ([3]; IV 1 mg/kg) [min] | half-life ([3]; male, Sprague-Dawley, rat, plasma, iv, 1 mg/kg, IV 1 mg/kg, Method 1, read-out: IV T1/2 (converted)) [min] |
| --- | --- | --- | --- | --- | --- | --- | --- | --- | --- |
| CNC(=O)c1[nH]c(C(=O)NC2COC2)cc1OC(C)c1ccc(Cl)cc1F (single isomer, unassigned) [Example 39, 3-(1-(4-chloro-2-fluorophenyl)ethoxy)-N^2-methyl-N^5-(oxetan-3-yl)-1H-pyrrole-2,5-dicarboxamide] | > 60 | 93 | 0.05 to 0.2 | XX (Fold >50 and ≤200) | 11 | ≥ 10 | – | – | 30 |
| CNC(=O)c1[nH]c(C(=O)NC2COC2)cc1OC(C)c1ccccc1F (single isomer, unassigned) [Example 47, 3-(1-(2-fluorophenyl)ethoxy)-N^2-methyl-N^5-(oxetan-3-yl)-1H-pyrrole-2,5-dicarboxamide] | – | 76 | 0.05 to 0.2 | XX (Fold >50 and ≤200) | – | ≥ 10 | > 60 | – | – |
